Series [1] deals with Normal human fibroblasts (IMR90). Briefly: Compound toxicity towards normal proliferative, senescent or quiescent fibroblasts (XTT cell viability assay). The series is classed as cell-based. The conditions noted are these: IC50 against normal, proliferating cells divided by IC50 versus senescent (doxorubicin-induced) cells, three days treatment. The method, then:
Normal human fibroblasts (IMR90) and patient-derived β-galactosidase (GLB1) or α-fucosidase (FUCA1) deficient cells were used to determine change in cell viability after exposure to compound. Cells were cultured with DMEM and 10% heat inactivated FBS under a controlled atmosphere of 5% carbon dioxide and 5% oxygen, […] and confirmed by the absence of senescence associated β-galactosidase (SA-β-Gal) staining and the capacity to re-enter the cell cycle. Senescence was induced by treatment with doxorubicin and confirmed by SA-β-Gal positive staining and the lack of DNA replication. Cells were treated with compound for three days. Cell viability was determined by mitochondrial dehydrogenase activity (XTT assay. Cayman Chemical) at ten concentrations of the tested compound. To generate dose-response curves, data was fitted to a four-parameter Hill function and the IC50 was determined at Y=0.5 viability. The senolytic index (S.I.) for each compound was determined by dividing the IC50 against normal, proliferating cells by the IC50 versus senescent cells. Senolytic index data is shown in Table 1 with compounds having S.I.<1 (−), S.I>1 (+), S.I.>5 (++) and S.I>10 (+++).
Background: Formazan colour is commonly taken as a measure of viable cells.

The test system of another series is C57BL/6 mice. The experiment in a line: Comparative toxicity of FURGal and FUR to C57BL/6 mice. It is filed as in vivo. The conditions noted are these: six days after treatment. On the procedure: Equimolar doses of (101)(160 mg/kg) and (102) (100 mg/kg) were administered by single dose intraperitoneal injection to 2 groups of mice (N=3 each). Six days after treatment blood cell counts were determined by standard methods (FIG. 2A), bone marrow cells from femur were counted (FIG. 2B) and spleen weights (FIG. 2C) determined to compare the toxicity of the two drugs.

Series [2] deals with senescent C57BL/6 mouse hepatocytes. Briefly: Effect of FURGal on doxorubicin-induced senescent hepatocytes after in vivo administration. The conditions noted are these: doxorubicin 25 mg/kg i.p.; FURGal 140 mg/kg 4 and 6 days later; livers after additional 4 days; FIG. 3C. The method, then:
Two groups of C57BL/6 mice (N=5/group) were injected intraperitoneally with doxorubicin (25 mg/kg) to induce hepatocellular senescence. 4 and 6 days later groups were injected with PBS or FURGal (140 mg/kg) (101). A third group of 5 animals served as controls. After an additional 4 days livers were removed and sectioned (30 μm) before staining for SA-β-Gal (6 fields/animal were assessed) (FIGS. 3A and 3B).

For series [3], the system named is Mouse embryonic fibroblast cells (MEFs). Briefly: Viability of proliferating or senescent mouse embryonic fibroblasts (DAPI/PI staining). The series is classed as cell-based. The conditions noted are these: 4 days. On the procedure:
Mouse embryonic fibroblast cells were incubated with 300 nM doxorubicin for 24 hrs to induce senescence. Cells were washed and after incubation in media for 7 days, senescence was confirmed by staining for SA-β-Gal (Itahana et al., Methods Mol. Biol. 371 (2007) 21-31) and lack of incorporation of 5-ethynyl-2′-deoxyuridine (EdU) (see Yu et al., J. Immunol. Methods 350 (2009) 29-35).
Proliferating or senescent MEFs were treated with increasing concentrations of either FURGal (101) or 5-fluorouridine (FUR) (102) for 4 days. Cells were washed and stained with 4′,6-diamidino-2-phenylindole (DAPI) and propidium iodide (PI) and the fraction of viable cells was assessed from the ratio of PI-positive nuclei over PI-negative nuclei.

Series [4] relates to senescent C57BL/6 mouse hepatocytes. Briefly: Effect of compound (113) on doxorubicin-induced senescent hepatocytes after in vivo administration. The method, then: Two groups of C57BL/6 mice (N=9/group) were injected intraperitoneally with doxorubicin (20 mg/kg) to induce hepatocellular senescence. 4 and 6 days later groups were injected i.p. with PBS or compound (113) (aka RBO-013) (2×20 mg/kg). A third group of animals served as controls. After an additional 2 days livers were removed and sectioned (30 μm) before staining for SA-β-Gal as previously described (FIGS. 4A and 4B). […] This senolytic effect was also corroborated by using quantitative PCR to detect mRNA levels of Cdkn2a (p16^INK4a) and IL-6 (N.B. Cdkn2a expression was exclusively detected in animals that received doxorubicin). Expression levels were reported relative to Actb as the reference gene.

Series [5] concerns senescent lung cells in C57BL/6 mice. Briefly: Senolytic effect of compound (119) on doxorubicin-induced senescent lung cells after in vivo administration. The arrangement: species or system mouse. On the procedure: Four groups of C57BL/6 mice (N=9/group) were injected intravenously with doxorubicin (15 mg/kg) to induce senescence in lung tissue. Five days later groups were injected with vehicle or compound (119) (aka RBO-019) (10, 20 or 40 mg/kg i.v.). After an additional 3 days lungs were removed and the left lobes sectioned before staining for SA-β-Gal as previously described (FIGS. 5A and 5B). […] This senolytic effect was also corroborated by using quantitative PCR to detect mRNA levels of Cdkn2a (p16^INK4a). Expression levels were reported relative to Actb as the reference gene.

The conditions of series [6]: compared with seco product (78); Tietze et al.; cited from earlier work.

The structures appear in SMILES notation.

Regarding `O=c1[nH]c(=O)n([C@@H]2O[C@H](CO[C@@H]3O[C@H](CO)[C@H](O)[C@H](O)[C@H]3O)[C@@H](O)[C@H]2O)cc1F` [(101), 5-fluorouridine-5′-O-β-D-galactopyranoside], the “Senolytic Index (S.I.)” value in series [1] is on record as “+++ (S.I>10 (+++))”. For the same compound, the “toxicity towards platelets, neutrophils, lymphocytes and bone marrow cells” value in the series with C57BL/6 mice (equimolar single i.p. dose: (101) 160 mg/kg, (102) 100 mg/kg, FIG. 2A, 2B) is recorded as “negligible toxicity”. The “effects on spleen weight” value in the series on C57BL/6 mice (single i.p. dose 160 mg/kg, in comparison to FUR (102) 100 mg/kg, FIG. 2C) is on record as “minimal effects”. The “senescent hepatocytes (SA-β-Gal staining of liver sections)” value in series [2] was “numerical trend for a reduction”. The “toxicity towards senescent MEFs” value in series [3] (doxorubicin-induced senescent MEFs, FIG. 1B) was “equitoxic”. The “cell viability / toxicity towards proliferating cells” value in series [3] (proliferating MEFs, increasing concentrations (as high as 4 mM), FIG. 1A) is “completely non-toxic”.

For `CC(=O)OC[C@H]1O[C@@H](ONC(=O)/C=C/c2ccc(CNCCc3c(C)[nH]c4ccccc34)cc2)[C@H](OC(C)=O)[C@@H](OC(C)=O)[C@H]1OC(C)=O` [(113), (2R,3S,4S,5R,6S)-2-(Acetoxymethyl)-6-(((E)-3-(4-(((2-(2-methyl-1H-indol-3yl)ethyl)amino)methyl)phenyl)acrylamido)oxy)tetrahydro-2H-pyran-3,4,5-triyl Triacetate], the “Senolytic Index (S.I.)” value in series [1] was “+++ (S.I>10 (+++))”. In addition, in series [4] (doxorubicin 20 mg/kg i.p., 2×20 mg/kg i.p. 4 and 6 days later, livers after additional 2 days, FIG. 4C), the “senescent hepatocytes (as visualized by SA-β-Gal staining)” value was “reduction”. For the same compound, the “Cdkn2a (p16INK4a) gene expression in liver” value in series [4] (quantitative PCR, relative to Actb, doxorubicin 20 mg/kg, 2×20 mg/kg i.p., FIG. 4D) is on record as “significant reduction”. The “IL-6 gene expression in liver” value in series [4] (quantitative PCR, relative to Actb, doxorubicin 20 mg/kg, 2×20 mg/kg i.p., FIG. 4E) is “significant reduction”.

As to `CC(=O)O[C@H]1[C@H](OC(C)=O)[C@H](ONC(=O)/C=C/c2ccc(CNCCc3c(C)[nH]c4ccccc34)cc2)O[C@@H](C)[C@H]1OC(C)=O` [(119), (2S,3R,4R,5S,6S)-2-Methyl-6-(((E)-3-(4-(((2-(2-methyl-1H-indol-3-yl)ethyl)amino)methyl)phenyl)acrylamido)oxy)tetrahydro-2H-pyran-3,4,5-triyl triacetate], in series [5] (doxorubicin 15 mg/kg i.v., 10, 20 or 40 mg/kg i.v. five days later, lungs after additional 3 days, FIG. 5C), the “SA-β-Gal staining in lung sections” value is recorded as “dose-dependent reduction”. For the same compound, in series [5] (quantitative PCR, relative to Actb, 10, 20 or 40 mg/kg i.v., FIG. 5D), the “Cdkn2a gene expression in lung” value is listed as “dose-dependent reduction”. Also, the “Senolytic Index (S.I.)” value in series [1] was “+++ (S.I>10 (+++))”.

`C[C@@H](Cl)[C@@H]1CN(C(=O)c2cc3cc(OCCN(C)C)ccc3[nH]2)c2cc(O[C@@H]3O[C@H](CO)[C@H](O)[C@H](O)[C@H]3O)c3ccccc3c21` [Compound (77)]: the “fold less cytotoxic than hydrolyzed seco product (78)” value in series [6] is “greater than 4000 fold”.
